{
  "source": "ChEMBL document CHEMBL1201862",
  "about": "“PubChem BioAssay data set” (2004)",
  "key": {"Salmon testes DNA": {"system": "Salmon testes DNA", "test": "acridine orange-DNA binding displacement – biochemical, fluorescence polarization, cherry-picked samples, set 2, artefact control for KSHV LANA DNA-binding inhibitor project, dose response (AID 504727)", "set-up": "species or system Salmonidae"}, "ORF 73": {"biological_target": "ORF 73 (Human herpesvirus 8, UniProt O40947)", "sequence (O40947 whole entry)": "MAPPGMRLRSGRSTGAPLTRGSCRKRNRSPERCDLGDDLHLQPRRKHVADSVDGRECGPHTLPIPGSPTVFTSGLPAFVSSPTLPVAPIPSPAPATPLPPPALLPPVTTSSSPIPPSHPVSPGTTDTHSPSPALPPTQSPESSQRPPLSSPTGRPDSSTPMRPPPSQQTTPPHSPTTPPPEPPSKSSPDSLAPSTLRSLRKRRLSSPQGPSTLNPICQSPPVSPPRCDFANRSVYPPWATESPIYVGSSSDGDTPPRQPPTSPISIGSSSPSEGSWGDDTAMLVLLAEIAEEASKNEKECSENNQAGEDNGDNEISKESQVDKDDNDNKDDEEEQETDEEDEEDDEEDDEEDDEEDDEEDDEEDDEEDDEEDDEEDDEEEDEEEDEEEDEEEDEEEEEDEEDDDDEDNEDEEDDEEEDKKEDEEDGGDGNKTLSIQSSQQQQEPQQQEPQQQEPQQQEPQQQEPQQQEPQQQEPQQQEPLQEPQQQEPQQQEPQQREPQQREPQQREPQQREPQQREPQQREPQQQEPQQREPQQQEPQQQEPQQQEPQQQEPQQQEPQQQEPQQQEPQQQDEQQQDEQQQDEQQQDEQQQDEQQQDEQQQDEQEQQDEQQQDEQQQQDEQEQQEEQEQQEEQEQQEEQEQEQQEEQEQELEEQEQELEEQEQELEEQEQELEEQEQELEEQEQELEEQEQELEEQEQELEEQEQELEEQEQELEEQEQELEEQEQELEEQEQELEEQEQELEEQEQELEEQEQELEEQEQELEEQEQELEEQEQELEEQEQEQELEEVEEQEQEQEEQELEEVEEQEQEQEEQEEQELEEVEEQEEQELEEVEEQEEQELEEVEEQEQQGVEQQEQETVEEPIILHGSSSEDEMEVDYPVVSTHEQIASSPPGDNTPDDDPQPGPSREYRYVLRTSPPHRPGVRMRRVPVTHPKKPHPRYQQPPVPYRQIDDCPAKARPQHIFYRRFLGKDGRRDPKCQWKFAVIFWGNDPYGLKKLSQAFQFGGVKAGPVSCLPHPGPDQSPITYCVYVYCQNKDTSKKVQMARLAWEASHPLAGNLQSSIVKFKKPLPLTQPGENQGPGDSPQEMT", "test": "KSHV LANA DNA-binding disruption – biochemical, fluorescence polarization, cherry-picked samples, dose response (AID 504725);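 note: fluorescence polarization of a labeled DNA duplex reporting LANA DNA binding; potency is for inhibitors that block LANA binding to the DNA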", "set-up": "species or system Human gammaherpesvirus 8"}, "[1]": {"test": "viability loss in HeLa cells – cytotoxicity control for MgcRacGAP inhibitor project, dose response (AID 624300)", "assay_type": "functional"}, "[2]": {"biological_target": "T1, Mannose-6-phosphate isomerase (Homo sapiens, UniProt P34949)", "T1 sequence (P34949 whole entry)": "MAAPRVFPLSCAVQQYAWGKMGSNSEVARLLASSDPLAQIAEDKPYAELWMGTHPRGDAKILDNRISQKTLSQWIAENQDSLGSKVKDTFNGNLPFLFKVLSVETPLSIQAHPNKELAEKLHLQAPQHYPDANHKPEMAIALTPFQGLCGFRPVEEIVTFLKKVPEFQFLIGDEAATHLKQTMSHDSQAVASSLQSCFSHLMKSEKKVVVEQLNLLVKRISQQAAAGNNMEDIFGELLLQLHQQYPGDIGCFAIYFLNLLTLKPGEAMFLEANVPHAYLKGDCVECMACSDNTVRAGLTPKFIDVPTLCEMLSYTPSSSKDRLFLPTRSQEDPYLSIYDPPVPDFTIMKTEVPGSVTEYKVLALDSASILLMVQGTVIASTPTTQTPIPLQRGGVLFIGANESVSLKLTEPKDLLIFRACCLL", "test": "Confirmation of compounds inhibiting phosphomannose isomerase (PMI) via a fluorescence intensity assay using a high concentration of mannose 6-phosphate. [Related pubchem assays (depositor defined):AID1209, AID1220, AID1545, AID1553, AID1620]"}, "[3]": {"biological_target": "T2, Alkaline phosphatase, tissue-nonspecific isozyme (Homo sapiens, UniProt P05186)", "T2 sequence (P05186 whole entry)": "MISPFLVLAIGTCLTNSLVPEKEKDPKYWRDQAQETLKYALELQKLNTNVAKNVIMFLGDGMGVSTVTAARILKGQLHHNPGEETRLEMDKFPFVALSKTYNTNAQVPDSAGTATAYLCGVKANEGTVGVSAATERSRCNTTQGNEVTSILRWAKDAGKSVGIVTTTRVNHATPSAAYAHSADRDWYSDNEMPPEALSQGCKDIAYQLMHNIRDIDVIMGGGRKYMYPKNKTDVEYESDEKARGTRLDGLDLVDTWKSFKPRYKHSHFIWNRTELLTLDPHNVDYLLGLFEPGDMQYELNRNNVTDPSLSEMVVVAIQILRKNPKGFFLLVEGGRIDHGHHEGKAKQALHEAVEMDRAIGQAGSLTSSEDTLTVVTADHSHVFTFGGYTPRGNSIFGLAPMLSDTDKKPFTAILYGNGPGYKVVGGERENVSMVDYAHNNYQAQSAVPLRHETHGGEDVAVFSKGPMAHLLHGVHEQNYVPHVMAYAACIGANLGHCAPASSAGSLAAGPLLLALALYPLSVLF", "test": "potency against alkaline phosphatase TNAP – biochemical, luminescent, dose response, SAR follow-up (AID 1056)"}, "Phosphomannomutase 2": {"biological_target": "T3, Phosphomannomutase 2 (Homo sapiens, UniProt O15305)", "T3 sequence (O15305 whole entry)": "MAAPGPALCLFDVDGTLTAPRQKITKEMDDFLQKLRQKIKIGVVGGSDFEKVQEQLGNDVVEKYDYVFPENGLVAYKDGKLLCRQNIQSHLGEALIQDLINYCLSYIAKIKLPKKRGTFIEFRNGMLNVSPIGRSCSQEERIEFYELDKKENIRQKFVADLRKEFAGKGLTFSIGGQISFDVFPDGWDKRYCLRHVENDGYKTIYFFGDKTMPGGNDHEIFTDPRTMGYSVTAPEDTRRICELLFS", "test": "Counter screen SAR assay for PMM2 inhibitors via a fluorescence intensity assay. [Related pubchem assays (depositor defined):AID1545, AID1574]"}, "[4]": {"biological_target": "Phosphoethanolamine/phosphocholine phosphatase (Homo sapiens, UniProt Q8TCT1)", "sequence (Q8TCT1 whole entry)": "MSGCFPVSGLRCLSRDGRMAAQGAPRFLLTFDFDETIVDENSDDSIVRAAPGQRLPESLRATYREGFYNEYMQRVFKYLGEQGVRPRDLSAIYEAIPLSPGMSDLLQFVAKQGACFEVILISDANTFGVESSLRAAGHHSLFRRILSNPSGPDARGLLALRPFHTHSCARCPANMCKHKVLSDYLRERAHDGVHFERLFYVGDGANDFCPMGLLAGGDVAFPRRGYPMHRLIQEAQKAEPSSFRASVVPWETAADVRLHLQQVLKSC", "test": "SAR assay for compounds that inhibit PHOSPHO1. [Related pubchem assays (depositor defined):AID1545, AID1565, AID1574]"}, "[5]": {"biological_target": "T4, Rac GTPase-activating protein 1 (Homo sapiens, UniProt Q9H0H5)", "T4 sequence (Q9H0H5 whole entry)": "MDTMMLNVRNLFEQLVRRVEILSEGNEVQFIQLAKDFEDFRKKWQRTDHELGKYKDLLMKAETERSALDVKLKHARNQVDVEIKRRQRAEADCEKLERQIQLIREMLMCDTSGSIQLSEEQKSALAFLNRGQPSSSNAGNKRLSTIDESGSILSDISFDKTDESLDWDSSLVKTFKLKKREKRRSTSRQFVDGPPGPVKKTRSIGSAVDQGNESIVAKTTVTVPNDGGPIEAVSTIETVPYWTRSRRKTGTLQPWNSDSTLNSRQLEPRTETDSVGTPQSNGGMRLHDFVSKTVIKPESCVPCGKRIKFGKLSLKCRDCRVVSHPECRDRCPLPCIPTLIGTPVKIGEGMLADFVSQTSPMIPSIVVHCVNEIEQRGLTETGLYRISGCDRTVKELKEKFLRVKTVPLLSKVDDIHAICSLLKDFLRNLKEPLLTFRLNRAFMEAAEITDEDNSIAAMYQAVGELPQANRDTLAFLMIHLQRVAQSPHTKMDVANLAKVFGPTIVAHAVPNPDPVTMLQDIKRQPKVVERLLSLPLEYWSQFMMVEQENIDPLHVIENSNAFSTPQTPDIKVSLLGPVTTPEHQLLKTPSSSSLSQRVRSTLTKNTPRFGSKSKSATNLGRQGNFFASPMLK", "test": "blockers of MgcRacGAP-driven Rac1 GTP hydrolysis – biochemical, ADP Hunter fluorescence, primary and confirmatory, confirmation (AID 624330)", "assay_type": "functional"}, "Nonstructural protein 1": {"biological_target": "Nonstructural protein 1 (Influenza A virus, UniProt Q194T2)", "sequence (Q194T2 whole entry)": "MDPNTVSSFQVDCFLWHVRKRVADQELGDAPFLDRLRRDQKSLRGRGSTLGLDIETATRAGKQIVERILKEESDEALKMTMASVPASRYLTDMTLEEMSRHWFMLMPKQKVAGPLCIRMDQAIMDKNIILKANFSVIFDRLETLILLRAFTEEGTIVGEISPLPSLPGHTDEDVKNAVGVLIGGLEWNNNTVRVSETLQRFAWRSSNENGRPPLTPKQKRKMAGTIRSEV", "assay_type": "functional, Influenza A virus (A/California/07/2009(H1N1))"}, "Beta-galactosidase": {"biological_target": "Beta-galactosidase (Escherichia coli, UniProt Q8VNN2)", "sequence (Q8VNN2 whole entry)": "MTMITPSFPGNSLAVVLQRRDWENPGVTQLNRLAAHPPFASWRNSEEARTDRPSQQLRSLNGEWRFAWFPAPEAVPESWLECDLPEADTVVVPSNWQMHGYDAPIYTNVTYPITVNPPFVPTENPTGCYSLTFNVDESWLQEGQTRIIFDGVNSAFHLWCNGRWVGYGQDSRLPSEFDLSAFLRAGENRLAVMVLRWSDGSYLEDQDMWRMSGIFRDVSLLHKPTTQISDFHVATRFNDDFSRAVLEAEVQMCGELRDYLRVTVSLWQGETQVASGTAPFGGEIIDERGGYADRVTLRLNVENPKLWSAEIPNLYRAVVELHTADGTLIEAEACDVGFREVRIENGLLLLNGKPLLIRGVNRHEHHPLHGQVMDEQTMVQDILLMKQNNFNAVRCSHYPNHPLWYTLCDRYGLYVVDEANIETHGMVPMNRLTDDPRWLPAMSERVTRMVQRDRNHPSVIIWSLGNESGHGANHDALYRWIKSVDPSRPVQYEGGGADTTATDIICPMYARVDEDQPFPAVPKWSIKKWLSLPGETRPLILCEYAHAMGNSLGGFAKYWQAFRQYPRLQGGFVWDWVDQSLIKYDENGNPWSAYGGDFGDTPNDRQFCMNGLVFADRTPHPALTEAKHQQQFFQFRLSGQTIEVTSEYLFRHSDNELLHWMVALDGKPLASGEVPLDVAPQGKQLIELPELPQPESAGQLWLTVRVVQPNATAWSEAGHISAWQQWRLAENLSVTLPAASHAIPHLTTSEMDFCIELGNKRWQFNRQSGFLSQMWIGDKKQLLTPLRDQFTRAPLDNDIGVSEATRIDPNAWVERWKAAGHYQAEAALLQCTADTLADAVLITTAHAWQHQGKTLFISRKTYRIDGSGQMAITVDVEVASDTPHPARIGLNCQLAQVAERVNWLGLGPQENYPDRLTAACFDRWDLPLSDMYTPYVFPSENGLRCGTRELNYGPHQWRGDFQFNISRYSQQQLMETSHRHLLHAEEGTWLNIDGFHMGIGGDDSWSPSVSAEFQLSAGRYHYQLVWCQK", "test": "detection-enzyme interference by beta-gal modulators – biochemical, E. coli enzyme, set 3, artefact control for CCR6 antagonist project, dose response (AID 504712)", "assay_type": "functional"}, "Hexokinase HKDC1": {"biological_target": "T5, Hexokinase HKDC1 (Homo sapiens, UniProt Q2TB90)", "T5 sequence (Q2TB90 whole entry)": "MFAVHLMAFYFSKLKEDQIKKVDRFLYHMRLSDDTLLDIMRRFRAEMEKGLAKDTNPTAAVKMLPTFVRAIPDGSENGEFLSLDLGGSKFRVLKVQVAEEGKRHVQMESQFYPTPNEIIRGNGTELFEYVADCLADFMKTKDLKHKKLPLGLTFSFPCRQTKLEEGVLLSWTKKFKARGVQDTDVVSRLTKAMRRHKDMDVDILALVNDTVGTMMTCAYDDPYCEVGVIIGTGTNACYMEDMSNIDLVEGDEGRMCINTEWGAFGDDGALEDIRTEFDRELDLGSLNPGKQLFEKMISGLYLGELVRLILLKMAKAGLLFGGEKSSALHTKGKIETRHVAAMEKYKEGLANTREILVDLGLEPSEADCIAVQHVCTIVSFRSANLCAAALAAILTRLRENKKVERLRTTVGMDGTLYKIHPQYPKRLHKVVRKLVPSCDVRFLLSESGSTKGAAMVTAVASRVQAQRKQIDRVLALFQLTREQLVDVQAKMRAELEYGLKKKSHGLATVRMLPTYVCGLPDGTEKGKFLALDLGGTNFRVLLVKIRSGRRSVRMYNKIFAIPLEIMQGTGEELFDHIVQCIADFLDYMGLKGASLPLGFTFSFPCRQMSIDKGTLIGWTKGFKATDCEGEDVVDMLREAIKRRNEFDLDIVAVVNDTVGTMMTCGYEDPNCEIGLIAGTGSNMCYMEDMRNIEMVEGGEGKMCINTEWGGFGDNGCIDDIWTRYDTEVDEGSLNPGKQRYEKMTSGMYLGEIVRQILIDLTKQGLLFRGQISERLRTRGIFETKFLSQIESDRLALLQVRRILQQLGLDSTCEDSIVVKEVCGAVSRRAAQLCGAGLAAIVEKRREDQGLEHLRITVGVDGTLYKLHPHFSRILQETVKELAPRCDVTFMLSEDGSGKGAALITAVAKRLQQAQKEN", "test": "inhibition of HKDC1 glucose phosphorylation – biochemical, W721R variant, dose response (AID 504729)", "assay_type": "functional"}},
  "note": "Calls of active or inactive are those of the source.",
  "data": [
    {"smiles": "Cc1ccc(N(CC(=O)N2CCOCC2)S(C)(=O)=O)cc1", "values": [
      {"measurement": "AC50", "setting": "Salmon testes DNA", "result": "70.1 µM (active)"},
      {"measurement": "AC50", "setting": "ORF 73", "result": "20.1 µM (active)"}
    ]},
    {"smiles": "COC(=O)c1cccc(-n2sc3ccccc3c2=O)c1", "values": [
      {"measurement": "CC50", "setting": "[1]", "result": "100 µM (active)"},
      {"measurement": "IC50", "setting": "[2]", "result": "14 µM (active)"},
      {"measurement": "IC50", "setting": "[3]", "result": "> 100 µM (inactive)"},
      {"measurement": "IC50", "setting": "Phosphomannomutase 2", "result": "15.4 µM (active)"},
      {"measurement": "IC50", "setting": "[4]", "result": "0.824 µM (active)"},
      {"measurement": "IC50", "setting": "[5]", "result": "36.9 µM (active)"}
    ]},
    {"smiles": "CCOC(=O)C1=C(Cc2ccc(OC)cc2)C(=O)c2ccccc2C1=O", "values": [
      {"measurement": "IC50", "setting": "Nonstructural protein 1", "result": "42.9 µM (active)"},
      {"measurement": "IC50", "setting": "Beta-galactosidase", "result": "> 66.6 µM (inactive)"},
      {"measurement": "IC50", "setting": "Hexokinase HKDC1", "result": "7.57 µM (active)"}
    ]}
  ]
}
